Values of other authors, collected in patent US20250235578A1, “WOUND DRESSING COMPOSITIONS AND METHODS OF USE AND PREPARATION THEROF” (T.J.Smith and Nephew,Limited, priority 2021, published 2025).

Conditions: under normal conditions

For `[N]=O` [NO, nitric oxide], the “maximum solubility in water” value is given as “approximately 1.7 mM”.
